Measurements: patent US20160130224A1, “Novel Pyrrole Derivatives” (priority 2013, published 2016)
Counter-ions that a name gives are not always drawn. Like-named read-outs stand apart in the source and are kept apart here.

How the values were obtained:
pneumolysin = pneumolysin (Streptococcus pneumoniae serotype 2, UniProt Q04IN8); experiment: Inhibition of the haemolytic activity of pneumolysin (sheep erythrocytes); format: cell-based
Experimental: The basis of this assay is that when pneumolysin is added to red blood cells, it induces their lysis and leads to the release of haemoglobin. In the presence of an inhibitory compound, pneumolysin-induced lysis is abolished, the red blood cells pellet at the bottom of the microtitre plate well and the supernatant is clear. However, if the compound is not inhibitory, the red blood cells are lysed and haemoglobin is released into the supernatant.
Test compound solutions (typically at 5 mM in DMSO) were diluted 1:1 in 100% DMSO. The compounds were then two-fold serially diluted in 100% DMSO across 11 wells of 96-well round-bottomed microtitre plate. PBS was then added to all the wells to achieve a 1:10 dilution of the compound in PBS. Pneumolysin was then added at a concentration equal to its LD100. Plates were then incubated at 37° C. for 30-40 min. After the incubation period, an equal volume of 4% (v/v) sheep erythrocyte suspension was added to each well and the plates incubated again at 37° C., for at least 30 min. Controls with only erythrocytes in PBS (control for no lysis) or erythrocytes plus pneumolysin (control for lysis) were prepared following the same procedure. Following the incubation with the erythrocytes, the Absorbance at 595 nm of each well was measured and the data used to determine the IC50 for each test compound. The IC50 values were determined using non-linear regression curve fitting. For that, the Log of the concentrations of the test compound was plotted against the percentage inhibition, estimated from the A595 values, followed by fitting a Hill Slope to the data.

[1] = Solubility testing in PBS or 0.9% saline; format: physicochemical; conditions: for solubility: aqueous buffer, thermodynamic from solid, PBS
Experimental: Solubility studies were performed by charging a vial with 5-10 mg of compound followed by the 40 addition of PBS solution or 0.9% saline to achieve a concentration of 100 mg/ml. If solubility was not observed the solution was diluted to concentrations of 50 mg/ml, 25 mg/ml and 4 mg/ml consecutively until complete solubility was observed.

[2] = Chemical stability assessment in PBS at 37.5° C. (HPLC); format: physicochemical; conditions: buffer, pH 6.2, read-out: Chemical stability at pH 6.2-7.2 (t1/2) (converted)
Experimental: Stability studies were carried out by dissolving 1-2 mg of compound in DMSO (1 mL) followed by addition of 0.4 mL of the resulting solution to stirred PBS solution (9.6 mL) at 37.5° C. A sample (ca. 0.5 mL) was immediately taken for HPLC analysis. Further samples were then taken for analysis at various timepoints thereafter. Half-lives were determined from the decrease in concentration of compound with respect to time.
Stability studies were performed by dissolving 1-2 mg of compound in DMSO (1 ml) followed by addition of 0.4 ml of the resulting solution to stirred PBS (9.6 ml) at 37.5° C. A sample (˜0.5 ml) was immediately taken for HPLC analysis. Further samples were then taken for analysis at various time-points thereafter. Half-lives were determined from the decrease in concentration of compound with respect to time.

[3] = Conversion of prodrug to parent active compound in mouse plasma (LC-MS/MS); format: in vitro ADME; conditions: 37° C., 10 μM start; for [ ] (μM) Prodrug remaining, t0 min.: 0 min; for [ ] (μM) Prodrug remaining, t15 min.: 15 min; for [ ] (μM) Prodrug remaining, t30 min.: 30 min; for [ ] (μM) Prodrug remaining, t60 min.: 60 min; for [ ] (μM) Prodrug remaining, t120 min.: 120 min
Experimental: (§1) The samples were then analysed by LC-MS/MS to obtain the amount of parent active compound appearing and prodrug derivative remaining over time.
(§2) Prodrug derivatives were assessed in the mouse, rat or human plasma stability assay at a concentration of 10 μM. Test compounds were diluted in DMSO to a final stock concentration of 10 mM. For the purpose of the assay, the stocks prepared were further diluted in DMSO to a concentration of 400 μM and 5 μL were added to 195 μL of mouse, rat or human plasma (pH 7.4) and then incubated at 37° C. The final concentration of DMSO in the plate was 2.5% (v/v). Reactions were terminated at 0, 15, 30, 60 and 120 min after incubation by adding 400 μl of acetonitrile containing 0.55 μM metoprolol and 1% (v/v) formic acid. The plate was then centrifuged at 3000 rpm, for 45 min, at 4° C. 80 μL of supernatant were transferred into a conical bottom 96 well glass coated plate. 40 μL of water were added prior to analysis for prodrug derivative and active species by LC-MS/MS. This assay was performed by a contract research organisation, Cyprotex Discovery Limited, UK, at the request of the inventors at Leicester.
(§3) (1) The parent active compound was quantified using a 6 point calibration curve prepared in deactivated mouse, rat or human plasma. (2) The percentage of prodrug compound remaining at each time point relative to 0 min sample was calculated from LC-MS/MS peak area ratios (compound peak area/internal standard peak area). This percentage was then used to determine the concentration of the prodrug compound at each time point in reference to the starting concentration (10 μM) at time 0 min.

[4] = Conversion of prodrug to parent active compound in rat plasma (LC-MS/MS); format: in vitro ADME; conditions: 37° C., 10 μM start; for [ ] (μM) Prodrug remaining, t0 min.: 0 min; for [ ] (μM) Prodrug remaining, t15 min.: 15 min; for [ ] (μM) Prodrug remaining, t30 min.: 30 min; for [ ] (μM) Prodrug remaining, t60 min.: 60 min; for [ ] (μM) Prodrug remaining, t120 min.: 120 min
Experimental: as §1, §2, §3

[5] = Conversion of prodrug to parent active compound in human plasma (LC-MS/MS); format: in vitro ADME; conditions: 37° C., 10 μM start; for [ ] (μM) Prodrug remaining, t0 min.: 0 min; for [ ] (μM) Prodrug remaining, t15 min.: 15 min; for [ ] (μM) Prodrug remaining, t30 min.: 30 min; for [ ] (μM) Prodrug remaining, t60 min.: 60 min
Experimental: as §1, §2, §3

Chain of pneumolysin (Q04IN8 whole entry): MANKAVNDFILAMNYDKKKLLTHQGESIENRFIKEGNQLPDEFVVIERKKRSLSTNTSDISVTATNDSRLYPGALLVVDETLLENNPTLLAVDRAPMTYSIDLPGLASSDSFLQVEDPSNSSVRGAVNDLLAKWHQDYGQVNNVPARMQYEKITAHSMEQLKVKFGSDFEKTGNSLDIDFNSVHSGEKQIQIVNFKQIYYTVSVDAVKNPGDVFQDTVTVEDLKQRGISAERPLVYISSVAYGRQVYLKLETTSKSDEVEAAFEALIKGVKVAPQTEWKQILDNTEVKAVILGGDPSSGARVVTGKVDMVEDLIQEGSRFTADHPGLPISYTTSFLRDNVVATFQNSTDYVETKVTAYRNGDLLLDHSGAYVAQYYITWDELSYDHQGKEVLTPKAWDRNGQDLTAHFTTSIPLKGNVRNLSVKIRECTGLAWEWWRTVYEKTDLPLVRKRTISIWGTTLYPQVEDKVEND

In the case of `CCOC(=O)c1c(O)c(O)c(C(=O)N(C)C)n1-c1ccc(OC)cc1` [UL1-012, Ethyl 5-(dimethylcarbamoyl)-3,4-dihydroxy-1-(4-methoxyphenyl)-1H-pyrrole-2-carboxylate], the IC50 (pneumolysin; Table 1, pneumolysin at LD100, sheep erythrocytes, 37° C., read-out: IC50) is reported as 200 nM, the IC50 (pneumolysin; Table 2, pneumolysin at LD100, sheep erythrocytes, 37° C., read-out: IC50) is reported as 200 nM and the “Solubility in 0.9% (w/v) saline, pH 6.5 or PBS pH 7.2” value ([1]; result in words) is reported as “Not soluble”. It also gave a half-life [2] of 1.02 h.
`COc1ccc(-n2c(C(=O)N(C)C)c(O)c(O)c2C(=O)N2CCN(C)CC2)cc1` [UL1-027, 3,4-Dihydroxy-1-(4-methoxyphenyl)-N,N-dimethyl-5-(4-methylpiperazine-1-carbonyl)-1H-pyrrole-2-carboxamide] gave an IC50 (pneumolysin) of 200 nM.
`COc1ccc(-n2c(C(=O)N(C)C)c(OC(=O)C(C)C)c(OC(=O)C(C)C)c2C(=O)N(C)C)cc1` [UL1-114, 2,5-Bis(dimethylcarbamoyl)-1-(4-methoxyphenyl)-1H-pyrrole-3,4-diyl bis(2-methylpropanoate)] gave an IC50 (pneumolysin) of 19500 nM.
With `COc1ccc(-n2c(C(=O)N(C)C)c(OC(=O)C(C)C)c(OC(=O)C(C)C)c2C(=O)N2CCN(C)CC2)cc1.Cl` [UL6-002, 2-(Dimethylcarbamoyl)-1-(4-methoxyphenyl)-5-(4-methylpiperazine-1-carbonyl)-1H-pyrrole-3,4-diyl bis(2-methylpropanoate) hydrochloride] the IC50 (pneumolysin) was 2000 nM, the “[ ] (μM) Prodrug remaining, t0 min.” value [3] was 10.00 µM and the “[ ] (μM) Prodrug remaining, t15 min.” value [3] was 0.00 µM. For the same molecule, the “[ ] (μM) Prodrug remaining, t30 min.” value [3] was 0.00 µM, the “[ ] (μM) Prodrug remaining, t60 min.” value [3] was 0.02 µM and the “[ ] (μM) Prodrug remaining, t120 min.” value [3] was 0.00 µM.
With `COc1ccc(-n2c(C(=O)N(C)C)c(OC(=O)C(C)(C)C)c(OC(=O)C(C)(C)C)c2C(=O)N2CCN(C)CC2)cc1` [UL6-004, 2-(Dimethylcarbamoyl)-1-(4-methoxyphenyl)-5-(4-methylpiperazine-1-carbonyl)-1H-pyrrole-3,4-diyl bis(2,2-dimethylpropanoate) hydrochloride] the IC50 (pneumolysin) was 1600 nM, the “[ ] (μM) Prodrug remaining, t0 min.” value [3] was 10.00 µM and the “[ ] (μM) Prodrug remaining, t15 min.” value [3] was 10.00 µM. For the same molecule, the “[ ] (μM) Prodrug remaining, t30 min.” value [3] was 9.88 µM, the “[ ] (μM) Prodrug remaining, t60 min.” value [3] was 9.80 µM and the “[ ] (μM) Prodrug remaining, t120 min.” value [3] was 9.63 µM.
Work on `COc1ccc(-n2c(C(=O)N(C)C)c(OC(=O)c3cccc(COP(=O)(O)O)c3)c(OC(=O)c3cccc(COP(=O)(O)O)c3)c2C(=O)N(C)C)cc1.[Na+].[Na+]` [UL6-006, Sodium ((((2,5-bis(dimethylcarbamoyl)-1-(4-methoxyphenyl)-1H-pyrrole-3,4-diyl)bis(oxy))bis(carbonyl))bis(3,1-phenylene))bis(methylene) bis(hydrogenphosphate)] yielded an IC50 (pneumolysin) of 300 nM, a solubility ([1]; pH 5-6) of at least 50 mg/mL and a half-life [2] of 29.5 h. For the same molecule, the “[ ] (μM) Prodrug remaining, t0 min.” value [3] was 10.00 µM, the “[ ] (μM) Prodrug remaining, t15 min.” value [3] was 2.05 µM and the “[ ] (μM) Prodrug remaining, t30 min.” value [3] was 0.79 µM. The “[ ] (μM) Prodrug remaining, t60 min.” value [3] was 0.10 µM, the “[ ] (μM) Prodrug remaining, t120 min.” value [3] was 0.04 µM and the “[ ] (μM) Prodrug remaining, t0 min.” value [4] was 10.00 µM. For the same molecule, the “[ ] (μM) Prodrug remaining, t15 min.” value [4] was 8.90 µM, the “[ ] (μM) Prodrug remaining, t30 min.” value [4] was 1.17 µM and the “[ ] (μM) Prodrug remaining, t60 min.” value [4] was 0.21 µM. For the same molecule, the “[ ] (μM) Prodrug remaining, t120 min.” value [4] was 0.07 µM, the “[ ] (μM) Prodrug remaining, t0 min.” value [5] was 10.00 µM and the “[ ] (μM) Prodrug remaining, t15 min.” value [5] was 2.15 µM. For the same molecule, the “[ ] (μM) Prodrug remaining, t30 min.” value [5] was 0.05 µM and the “[ ] (μM) Prodrug remaining, t60 min.” value [5] was 0.01 µM.
Work on `CCOC(=O)c1c(OC(=O)c2ccc(COP(=O)([O-])O)cc2)c(OC(=O)c2ccc(COP(=O)([O-])O)cc2)c(C(=O)N(C)C)n1-c1ccc(OC)cc1.[Na+].[Na+]` [UL6-008, Sodium ((((2-(dimethylcarbamoyl)-5-(ethoxycarbonyl)-1-(4-methoxyphenyl)-1H-pyrrole-3,4-diyl)bis(oxy))bis(carbonyl))bis(4,1-phenylene))bis(methylene) bis(hydrogenphosphate)] yielded an IC50 (pneumolysin) of 1900 nM, a solubility ([1]; pH 6) of at least 100 mg/mL and a half-life [2] of 144 h. The “[ ] (μM) Prodrug remaining, t0 min.” value [3] was 10.00 µM, the “[ ] (μM) Prodrug remaining, t15 min.” value [3] was 4.53 µM and the “[ ] (μM) Prodrug remaining, t30 min.” value [3] was 1.70 µM. For the same molecule, the “[ ] (μM) Prodrug remaining, t60 min.” value [3] was 0.47 µM, the “[ ] (μM) Prodrug remaining, t120 min.” value [3] was 0.09 µM and the “[ ] (μM) Prodrug remaining, t0 min.” value [4] was 10.00 µM. For the same molecule, the “[ ] (μM) Prodrug remaining, t15 min.” value [4] was 2.90 µM, the “[ ] (μM) Prodrug remaining, t30 min.” value [4] was 1.00 µM and the “[ ] (μM) Prodrug remaining, t60 min.” value [4] was 0.21 µM. For the same molecule, the “[ ] (μM) Prodrug remaining, t120 min.” value [4] was 0.07 µM, the “[ ] (μM) Prodrug remaining, t0 min.” value [5] was 10.00 µM and the “[ ] (μM) Prodrug remaining, t15 min.” value [5] was 4.89 µM. The “[ ] (μM) Prodrug remaining, t30 min.” value [5] was 5.10 µM, the “[ ] (μM) Prodrug remaining, t60 min.” value [5] was 6.06 µM and the “[ ] (μM) Prodrug remaining, t120 min.” value ([5]; 120 min) was 4.52 µM.
